≈ marks a conversion by molar mass, not a printed value.
Assays:
Type in all cases: functional
Staphylococcus aureus [1] = assay: In vitro antimicrobial activity against Staphylococcus aureus 209P NIHJ JCI
Staphylococcus aureus [2] = assay: In vitro antimicrobial activity against methicillin resistant Staphylococcus aureus pMS520
Sus scrofa = organism: Sus scrofa; assay: Porcine renal DHP-1 susceptibility.
Pseudomonas aeruginosa [3] = assay: In vitro antimicrobial activity against Pseudomonas aeruginosa AK 109
Pseudomonas aeruginosa [4] = assay: In vitro antimicrobial activity against ceftazidime resistant Pseudomonas aeruginosa AKR 17
Escherichia coli = assay: In vitro antimicrobial activity against Escherichia coli NIHJ JC2
Rattus norvegicus = assay: Epileptogenicity at 200 ug in rat intracerebroventricular assay.
[5] = tested on: Staphylococcus epidermidis; assay: In vitro antimicrobial activity against methicillin resistant Staphylococcus epidermidis MB5181

Structure (SMILES)	MIC (Staphylococcus aureus [1]) [ng/mL]	MIC (Staphylococcus aureus [2]) [µg/mL]	Susceptibility (Sus scrofa)	MIC (Pseudomonas aeruginosa [3]) [µg/mL]	MIC (Pseudomonas aeruginosa [4]) [µg/mL]	MIC (Escherichia coli) [µg/mL]	Epileptogenicity (Rattus norvegicus)	MIC [5] [µg/mL]
C[C@@H](O)[C@H]1C(=O)N2C(C(=O)O)=C(S[C@@H]3CN[C@@H](c4ccc(CN)cc4)C3)[C@H](C)[C@H]12	< 6	0.78 (≈ 1.87 µM)	0.29	0.39 (≈ 0.934 µM)	3.13 (≈ 7.5 µM)	0.025 (≈ 0.0599 µM)	5	1.56 (≈ 3.74 µM)
C[C@@H](O)[C@H]1C(=O)N2C(C(=O)O)=C(S[C@@H]3CN[C@@H](c4ccc(C(N)CCO)cc4)C3)[C@H](C)[C@H]12 (stereo partly specified)	< 6	3.13 (≈ 6.78 µM)	–	1.56 (≈ 3.38 µM)	12.5 (≈ 27.1 µM)	0.05 (≈ 0.108 µM)	0	6.25 (≈ 13.5 µM)
C[C@@H](O)[C@H]1C(=O)N2C(C(=O)O)=C(S[C@@H]3CN[C@@H](c4ccc(CN)s4)C3)[C@H](C)[C@H]12	< 6	1.56 (≈ 3.68 µM)	0.84	0.78 (≈ 1.84 µM)	3.13 (≈ 7.39 µM)	0.025 (≈ 0.059 µM)	5	1.56 (≈ 3.68 µM)
CN[C@H](CC(C)C)C(=O)N[C@H]1C(=O)N[C@@H](CC(N)=O)C(=O)N[C@H]2C(=O)N[C@H]3C(=O)N[C@H](C(=O)N[C@H](C(=O)O)c4cc(O)cc(O)c4-c4cc3ccc4O)[C@H](O)c3ccc(c(Cl)c3)Oc3cc2cc(c3O[C@@H]2O[C@H](CO)[C@@H](O)[C@H](O)[C@H]2O[C@H]2C[C@](C)(N)[C@H](O)[C@H](C)O2)Oc2ccc(cc2Cl)[C@H]1O [VANCOMYCIN]	390 (≈ 0.269 µM)	0.78 (≈ 0.538 µM)	–	> 100	> 100	> 100	–	–
C[C@@H](O)[C@H]1C(=O)N2C(C(=O)O)=C(S[C@@H]3CN[C@@H](c4ccc([C@@H](N)CC(N)=O)cc4)C3)[C@H](C)[C@H]12	< 6	1.56 (≈ 3.29 µM)	0.27	0.78 (≈ 1.64 µM)	1.56 (≈ 3.29 µM)	0.025 (≈ 0.0527 µM)	0	1.56 (≈ 3.29 µM)
C=CCC(N)c1ccc([C@H]2C[C@H](SC3=C(C(=O)O)N4C(=O)[C@H]([C@@H](C)O)[C@H]4[C@H]3C)CN2)cc1 (stereo partly specified)	< 6	1.56 (≈ 3.41 µM)	0.29	1.56 (≈ 3.41 µM)	12.5 (≈ 27.3 µM)	0.025 (≈ 0.0546 µM)	0	3.13 (≈ 6.84 µM)
CCSCC(N)c1ccc([C@H]2C[C@H](SC3=C(C(=O)O)N4C(=O)[C@H]([C@@H](C)O)[C@H]4[C@H]3C)CN2)cc1 (stereo partly specified)	< 6	1.56 (≈ 3.17 µM)	0.27	3.13 (≈ 6.37 µM)	12.5 (≈ 25.4 µM)	0.025 (≈ 0.0508 µM)	–	0.78 (≈ 1.59 µM)
C[C@@H](O)[C@H]1C(=O)N2C(C(=O)O)=C(S[C@@H]3CN[C@@H](c4ccc(CNCC(N)=O)cc4)C3)[C@H](C)[C@H]12	< 6	3.13 (≈ 6.6 µM)	0.31	1.56 (≈ 3.29 µM)	6.25 (≈ 13.2 µM)	0.025 (≈ 0.0527 µM)	–	1.56 (≈ 3.29 µM)
CC(C)NCc1ccc([C@H]2C[C@H](SC3=C(C(=O)O)N4C(=O)[C@H]([C@@H](C)O)[C@H]4[C@H]3C)CN2)cc1	< 6	1.56 (≈ 3.39 µM)	–	0.78 (≈ 1.7 µM)	6.25 (≈ 13.6 µM)	0.05 (≈ 0.109 µM)	–	1.56 (≈ 3.39 µM)
CNCc1ccc([C@H]2C[C@H](SC3=C(C(=O)O)N4C(=O)[C@H]([C@@H](C)O)[C@H]4[C@H]3C)CN2)cc1	< 6	0.78 (≈ 1.81 µM)	0.25	0.39 (≈ 0.904 µM)	1.56 (≈ 3.61 µM)	0.025 (≈ 0.0579 µM)	0	1.56 (≈ 3.61 µM)
C[C@@H](O)[C@H]1C(=O)N2C(C(=O)O)=C(S[C@@H]3CN[C@@H](c4ccc(C(N)C(N)=O)cc4)C3)[C@H](C)[C@H]12 (stereo partly specified)	< 6	3.13 (≈ 6.8 µM)	0.32	1.56 (≈ 3.39 µM)	6.25 (≈ 13.6 µM)	0.025 (≈ 0.0543 µM)	0	3.13 (≈ 6.8 µM)
C[C@@H](O)[C@H]1C(=O)N2C(C(=O)O)=C(S[C@@H]3CN[C@@H](c4ccc(C5(N)CC5)cc4)C3)[C@H](C)[C@H]12	< 6	1.56 (≈ 3.52 µM)	0.32	3.13 (≈ 7.06 µM)	6.25 (≈ 14.1 µM)	0.025 (≈ 0.0564 µM)	0	1.56 (≈ 3.52 µM)
C[C@@H](O)[C@H]1C(=O)N2C(C(=O)O)=C(S[C@@H]3CN[C@@H](c4ccc(CNCCO)cc4)C3)[C@H](C)[C@H]12	< 6	1.56 (≈ 3.38 µM)	0.31	0.78 (≈ 1.69 µM)	6.25 (≈ 13.5 µM)	0.05 (≈ 0.108 µM)	–	1.56 (≈ 3.38 µM)
C[C@@H](O)[C@H]1C(=O)N2C(C(=O)O)=C(S[C@@H]3CN[C@@H](c4ccc(CN=C(N)N)cc4)C3)[C@H](C)[C@H]12	< 6	1.56 (≈ 3.39 µM)	–	0.78 (≈ 1.7 µM)	3.13 (≈ 6.81 µM)	0.012 (≈ 0.0261 µM)	–	0.78 (≈ 1.7 µM)

— ChEMBL document CHEMBL1132752, “Structure-activity relationships of trans-3,5-disubstituted pyrrolidinylthio-1beta-methylcarbapenems. Part 2: J-111,225, J-114,870, J-114,871 and related compounds” (2000)
